Laboratory results reported in paper PMC9518264, “Design and synthesis of novel quinazolinone-based derivatives as EGFR inhibitors with antitumor activity” (Journal of Enzyme Inhibition and Medicinal Chemistry, 2022).
Like-named read-outs stand apart in the source and are kept apart here.

How the values were obtained:
SR = test: cells; format: cell-based; details: Homo sapiens, read-out: growth inhibition % (GI%)
MDA-MB-468 = test: NCI 60 cell line antiproliferative screening (SRB), Breast cancer; details: Homo sapiens, MDA-MB-468, read-out: growth inhibition % (GI%)
MOLT-4 = test: cells; format: cell-based; details: Homo sapiens
HOP-92 = test: cells; format: cell-based; details: Homo sapiens
OVCAR-5 = test: cells; format: cell-based; details: Homo sapiens
NCI/ADR-RES = test: cells; format: cell-based; details: Homo sapiens, read-out: growth inhibition % (GI%)
SNB-19 = test: cells; format: cell-based; details: Homo sapiens
HCT-15 = test: cells; format: cell-based; details: Homo sapiens
NCI-H522 = test: cells; format: cell-based; details: Homo sapiens
NCI-H322M = test: cells; format: cell-based; details: Homo sapiens, read-out: growth inhibition % (GI%)
DU-145 = test: cells; format: cell-based; details: Homo sapiens
PC-3 = test: cells; format: cell-based; details: Homo sapiens
BT-549 = test: cells; format: cell-based; details: Homo sapiens
HOP-62 = test: cells; format: cell-based; details: Homo sapiens
SN12C = test: cells; format: cell-based; details: Homo sapiens, read-out: growth inhibition % (GI%)
UACC-62 = test: cells; format: cell-based; details: Homo sapiens
HL-60(TB) = test: cells; format: cell-based; details: Homo sapiens
EKVX = test: cells; format: cell-based; details: Homo sapiens, read-out: growth inhibition % (GI%)
HT29 = test: cells; format: cell-based; details: Homo sapiens
SK-MEL-5 = test: cells; format: cell-based; details: Homo sapiens
TK-10 = test: cells; format: cell-based; details: Homo sapiens
RPMI-8226 = test: cells; format: cell-based; details: Homo sapiens
HCC-2998 = test: cells; format: cell-based; details: Homo sapiens
[1] = system: panel of 60 tumour cell lines; test: NCI 60 cell line antiproliferative screening (SRB), whole panel or subpanels (means, ranges, words); format: cell-based, human; details: for inhibition at 10 µM: Homo sapiens, 60 cell, mean over the cell line panel, read-out: Mean growth inhibition % (mean GI%)
UACC-257 = test: cells; format: cell-based; details: Homo sapiens
786-0 = test: cells; format: cell-based; details: Homo sapiens
SK-MEL-28 = test: cells; format: cell-based; details: Homo sapiens
A498 = test: cells; format: cell-based; details: Homo sapiens
NCI-H460 = test: cells; format: cell-based; details: Homo sapiens
MCF7 = test: cells; format: cell-based; details: Homo sapiens
SF-539 = test: cells; format: cell-based; details: Homo sapiens
SK-MEL-2 = test: cells; format: cell-based; details: Homo sapiens
MALME-3M = test: cells; format: cell-based; details: Homo sapiens, read-out: growth inhibition % (GI%)
ACHN = test: cells; format: cell-based; details: Homo sapiens, read-out: growth inhibition % (GI%)
NCI-H226 = test: cells; format: cell-based; details: Homo sapiens
HCT-116 = test: cells; format: cell-based; details: Homo sapiens
SW-620 = test: cells; format: cell-based; details: Homo sapiens
CCRF-CEM = test: cells; format: cell-based; details: Homo sapiens, read-out: growth inhibition % (GI%)
UO-31 = test: cells; format: cell-based; details: Homo sapiens
OVCAR-3 = test: NCI 60 cell line antiproliferative screening (SRB), Ovarian cancer; details: Homo sapiens, OVCAR-3, read-out: growth inhibition % (GI%)
U251 = test: cells; format: cell-based; details: Homo sapiens
SNB-75 = test: cells; format: cell-based; details: Homo sapiens
A549/ATCC = test: cells; format: cell-based; details: Homo sapiens
T-47D = test: cells; format: cell-based; details: Homo sapiens, T47D, read-out: growth inhibition % (GI%)
SF-295 = test: cells; format: cell-based; details: Homo sapiens
OVCAR-4 = test: cells; format: cell-based; details: Homo sapiens
COLO-205 = test: cells; format: cell-based; details: Homo sapiens

O=C(CSc1nc2ccccc2c(=O)n1-c1ccc(Cl)cc1)NN=Cc1ccc(N2CCCCC2)cc1 [6j, 2-((3–(4-chlorophenyl)-4-oxo-3,4-dihydroquinazolin-2-yl)thio)-N'-(4-(piperidin-1-yl)benzylidene) acetohydrazide]
inhibition at 10 µM (SR): 25.2%
inhibition at 10 µM (MDA-MB-468): 20.5%
inhibition at 10 µM (MOLT-4; MOLT-4, read-out: growth inhibition % (GI%)): < 15%
inhibition at 10 µM (HOP-92; HOP-92, read-out: growth inhibition % (GI%)): 37.7%
inhibition at 10 µM (OVCAR-5; OVCAR-5, read-out: growth inhibition % (GI%)): 23.1%
inhibition at 10 µM (NCI/ADR-RES): 60.1%
inhibition at 10 µM (SNB-19; SNB-19, read-out: growth inhibition % (GI%)): 56.8%
inhibition at 10 µM (HCT-15; HCT-15, read-out: growth inhibition % (GI%)): 32.2%
inhibition at 10 µM (NCI-H522; NCI-H522, read-out: growth inhibition % (GI%)): < 15%
inhibition at 10 µM (NCI-H322M): 23%
inhibition at 10 µM (DU-145; DU-145, read-out: growth inhibition % (GI%)): 70.9%
inhibition at 10 µM (PC-3; PC-3, read-out: growth inhibition % (GI%)): 21.4%
inhibition at 10 µM (BT-549; BT-549, read-out: growth inhibition % (GI%)): < 15%
inhibition at 10 µM (HOP-62; HOP-62, read-out: growth inhibition % (GI%)): 81.6%
inhibition at 10 µM (SN12C): 37.6%
inhibition at 10 µM (UACC-62; UACC-62, read-out: growth inhibition % (GI%)): 26.5%
inhibition at 10 µM (HL-60(TB); HL-60, read-out: growth inhibition % (GI%)): < 15%
inhibition at 10 µM (EKVX): 17.9%
inhibition at 10 µM (HT29; HT-29, read-out: growth inhibition % (GI%)): 39.1%
inhibition at 10 µM (SK-MEL-5; SK-MEL-5, read-out: growth inhibition % (GI%)): < 15%
inhibition at 10 µM (TK-10; TK-10, read-out: growth inhibition % (GI%)): < 15%
inhibition at 10 µM (RPMI-8226; RPMI-8226, read-out: growth inhibition % (GI%)): < 15%
inhibition at 10 µM (HCC-2998; HCC 2998, read-out: growth inhibition % (GI%)): < 15%
inhibition at 10 µM [1]: 34.2%
inhibition at 10 µM (UACC-257; UACC-257, read-out: growth inhibition % (GI%)): < 15%
inhibition at 10 µM (786-0; 786-0, read-out: growth inhibition % (GI%)): 92.8%
inhibition at 10 µM (SK-MEL-28; SK-MEL-28, read-out: growth inhibition % (GI%)): 15.2%
inhibition at 10 µM (A498; A498, read-out: growth inhibition % (GI%)): 21.5%
inhibition at 10 µM (NCI-H460; NCI-H460, read-out: growth inhibition % (GI%)): 90.3%
inhibition at 10 µM (MCF7; MCF7, read-out: growth inhibition % (GI%)): 32.5%
inhibition at 10 µM (SF-539; SF-539, read-out: growth inhibition % (GI%)): 58.7%
inhibition at 10 µM (SK-MEL-2; SK-MEL-2, read-out: growth inhibition % (GI%)): < 15%
inhibition at 10 µM (MALME-3M; Malme-3M): 35.8%
inhibition at 10 µM (ACHN): 82.6%
inhibition at 10 µM (NCI-H226; NCI-H226, read-out: growth inhibition % (GI%)): 61.8%
inhibition at 10 µM (HCT-116; HCT-116, read-out: growth inhibition % (GI%)): 63.1%
inhibition at 10 µM (SW-620; SW-620, read-out: growth inhibition % (GI%)): 34.1%
inhibition at 10 µM (CCRF-CEM): < 15%
inhibition at 10 µM (UO-31; UO-31, read-out: growth inhibition % (GI%)): 47%
inhibition at 10 µM (OVCAR-3): 67.2%
inhibition at 10 µM (U251; U-251, read-out: growth inhibition % (GI%)): 49.4%
inhibition at 10 µM (SNB-75; SNB-75, read-out: growth inhibition % (GI%)): 20.1%
inhibition at 10 µM (A549/ATCC; A549, read-out: growth inhibition % (GI%)): 50.6%
inhibition at 10 µM (T-47D): 25.4%
inhibition at 10 µM (SF-295; SF-295, read-out: growth inhibition % (GI%)): 23.6%
inhibition at 10 µM (OVCAR-4; OVCAR-4, read-out: growth inhibition % (GI%)): 41.4%
inhibition at 10 µM (COLO-205; COLO 205, read-out: growth inhibition % (GI%)): 17.9%

O=C(CSc1nc2ccccc2c(=O)n1-c1ccc(Cl)cc1)NN=Cc1ccc(N2CCOCC2)cc1 [6k, 2-((3–(4-chlorophenyl)-4-oxo-3,4-dihydroquinazolin-2-yl)thio)-N'-(4-morpholinobenzylidene) acetohydrazide]
inhibition at 10 µM (SR; 10 μM): < 15%
inhibition at 10 µM (MDA-MB-468): < 15%
inhibition at 10 µM (MOLT-4; MOLT-4, 10 μM, read-out: growth inhibition % (GI%)): < 15%
inhibition at 10 µM (HOP-92; HOP-92, 10 μM, read-out: growth inhibition % (GI%)): < 15%
inhibition at 10 µM (OVCAR-5; OVCAR-5, 10 μM, read-out: growth inhibition % (GI%)): < 15%
inhibition at 10 µM (NCI/ADR-RES; 10 μM): < 15%
inhibition at 10 µM (SNB-19; SNB-19, 10 μM, read-out: growth inhibition % (GI%)): < 15%
inhibition at 10 µM (HCT-15; HCT-15, 10 μM, read-out: growth inhibition % (GI%)): < 15%
inhibition at 10 µM (NCI-H522; NCI-H522, 10 μM, read-out: growth inhibition % (GI%)): < 15%
inhibition at 10 µM (NCI-H322M; 10 μM): < 15%
inhibition at 10 µM (DU-145; DU-145, 10 μM, read-out: growth inhibition % (GI%)): < 15%
inhibition at 10 µM (PC-3; PC-3, 10 μM, read-out: growth inhibition % (GI%)): < 15%
inhibition at 10 µM (BT-549; BT-549, 10 μM, read-out: growth inhibition % (GI%)): < 15%
inhibition at 10 µM (HOP-62; HOP-62, 10 μM, read-out: growth inhibition % (GI%)): < 15%
inhibition at 10 µM (SN12C; 10 μM): < 15%
inhibition at 10 µM (UACC-62; UACC-62, 10 μM, read-out: growth inhibition % (GI%)): < 15%
inhibition at 10 µM (HL-60(TB); HL-60(TB), 10 μM, read-out: growth inhibition % (GI%)): < 15%
inhibition at 10 µM (EKVX; 10 μM): < 15%
inhibition at 10 µM (HT29; HT-29, HT29, 10 μM, read-out: growth inhibition % (GI%)): < 15%
inhibition at 10 µM (SK-MEL-5; SK-MEL-5, 10 μM, read-out: growth inhibition % (GI%)): < 15%
inhibition at 10 µM (TK-10; TK-10, 10 μM, read-out: growth inhibition % (GI%)): < 15%
inhibition at 10 µM (RPMI-8226; RPMI-8226, 10 μM, read-out: growth inhibition % (GI%)): < 15%
inhibition at 10 µM (HCC-2998; HCC-2998, 10 μM, read-out: growth inhibition % (GI%)): < 15%
antiproliferative activity against all tested cell lines ([1]; 10 μM single dose): did not show activity
inhibition at 10 µM [1]: < 0%
inhibition at 10 µM (UACC-257; UACC-257, 10 μM, read-out: growth inhibition % (GI%)): < 15%
inhibition at 10 µM (786-0; 786-0, 10 μM, read-out: growth inhibition % (GI%)): < 15%
inhibition at 10 µM (SK-MEL-28; SK-MEL-28, 10 μM, read-out: growth inhibition % (GI%)): < 15%
inhibition at 10 µM (A498; A498, 10 μM, read-out: growth inhibition % (GI%)): < 15%
inhibition at 10 µM (NCI-H460; NCI-H460, 10 μM, read-out: growth inhibition % (GI%)): < 15%
inhibition at 10 µM (MCF7; MCF7, 10 μM, read-out: growth inhibition % (GI%)): < 15%
inhibition at 10 µM (SF-539; SF-539, 10 μM, read-out: growth inhibition % (GI%)): < 15%
inhibition at 10 µM (SK-MEL-2; SK-MEL-2, 10 μM, read-out: growth inhibition % (GI%)): < 15%
inhibition at 10 µM (MALME-3M; MALME-3M, 10 μM): < 15%
inhibition at 10 µM (ACHN; 10 μM): < 15%
inhibition at 10 µM (NCI-H226; NCI-H226, 10 μM, read-out: growth inhibition % (GI%)): < 15%
inhibition at 10 µM (HCT-116; HCT-116, 10 μM, read-out: growth inhibition % (GI%)): < 15%
inhibition at 10 µM (SW-620; SW-620, 10 μM, read-out: growth inhibition % (GI%)): < 15%
inhibition at 10 µM (CCRF-CEM; 10 μM): < 15%
inhibition at 10 µM (UO-31; UO-31, 10 μM, read-out: growth inhibition % (GI%)): < 15%
inhibition at 10 µM (OVCAR-3): < 15%
inhibition at 10 µM (U251; U-251, U251, 10 μM, read-out: growth inhibition % (GI%)): < 15%
inhibition at 10 µM (SNB-75; SNB-75, 10 μM, read-out: growth inhibition % (GI%)): < 15%
inhibition at 10 µM (A549/ATCC; A549/ATCC, 10 μM, read-out: growth inhibition % (GI%)): < 15%
inhibition at 10 µM (T-47D; T-47D, 10 μM): < 15%
inhibition at 10 µM (SF-295; SF-295, 10 μM, read-out: growth inhibition % (GI%)): < 15%
inhibition at 10 µM (OVCAR-4; OVCAR-4, 10 μM, read-out: growth inhibition % (GI%)): < 15%
inhibition at 10 µM (COLO-205; COLO-205, 10 μM, read-out: growth inhibition % (GI%)): < 15%
